Experiments:
clinical = details: male, human, in vivo, sc
Method: (§1) A 1000 μL volume of blank plasma was placed in a 2 mL Eppendorf tube. Then, 10 μL of internal standard solution (50 μg/mL) was added to the tube, and the mixture was vortexed. An amount of 100 μL of the resulting sample was then transferred to another centrifuge tube, and 200 μL of methanol/deionized water/formic acid (60:40:0.08) mixture was added, followed by 500 μL of methanol. The sample was then centrifuged at 14,500 rpm for 15 min.
(§2) For the solid-phase extraction (SPE), the SPE cartridge was pre-treated with 1 mL methanol, followed by 1 mL of deionized water. The sample mixture was diluted with 500 μL of deionized water and gently loaded onto an SPE Oasis® HLB 1cc 30 mg cartridge (Waters Corporation, Milford, MA, USA). The SPE cartridge was washed with 1 mL deionized water, followed by 1 mL of methanol/deionized water (60:40) mixture. The sample was then eluted with 1 mL 0.1% formic acid (methanol solution) and evaporated to dryness (for 20 min) at 45 °C under a stream of nitrogen. The dry residue was then reconstituted with 100 μL of methanol/deionized water/formic acid (60:40:0.08) mixture.
(§3) The chromatographic separation was performed on a Jupiter® C18 column (5 μm, 50 × 4.6 mm 300 Å) (Phenomonex, Torrance, CA, USA). The mobile phase consisted of 0.1% v/v formic acid aqueous solution (solvent A) and 0.1% v/v formic acid in acetonitrile (solvent B). The mobile phase composition was changed gradually in a gradient elution (Table 5) with a constant flow rate of 1.2 mL/min. The temperature of the column oven was kept at 30 °C. After the sample preparation procedure, 30 μL of supernatant was injected into the LC-MS/MS system.
(§4) Detection was performed with triple quadruple tandem mass spectrometry in the positive ion mode (5 kW) using the MRM mode. Nitrogen was used as a nebulizer (3 L/h) and drying (20 L/h) gas. The desolvation temperature was set at 200 °C, and the source temperature was 400 °C.

[1] = LC-MS/MS quantitation of GnRH analogs in blood plasma of prostate cancer patients (therapeutic monitoring); details: patients on goserelin therapy; conclusion from the obtained data
Method: as §1, §2, §3, §4

[2] = native hormone; cited from earlier work
Text: Gonadotropin-releasing hormone (GnRH) is a decapeptide released by hypothalamic neurons, which stimulates GnRH-mediated pituitary secretion of both luteinizing hormone (LH) and follicle-stimulating hormone (FSH). […] Goserelin, buserelin, and triptorelin are GnRH agonists, a relatively new class of drugs. The long-term administration of these agonists results in a significant decrease in estrogen and testosterone blood levels. ...

CC(C)C[C@H](NC(=O)[C@@H](COC(C)(C)C)NC(=O)[C@H](Cc1ccc(O)cc1)NC(=O)[C@H](CO)NC(=O)[C@H](Cc1c[nH]c2ccccc12)NC(=O)[C@H](Cc1cnc[nH]1)NC(=O)[C@@H]1CCC(=O)N1)C(=O)N[C@@H](CCCNC(=N)N)C(=O)N1CCC[C@H]1C(=O)NNC(N)=O [Goserelin, Goserelin acetate] gave a level at 8 day of a 28-day dosing cycle (clinical; 3.6 mg) of 0.95 ng/mL, a level at 16 day of a 28-day dosing cycle (clinical; 3.6 mg) of 16.2 ng/mL and a level at 10 day of an 84-day dosing cycle (clinical; 10.8 mg) of 7.81 ng/mL. The level at 29 day of an 84-day dosing cycle (clinical; 10.8 mg) was 13.6 ng/mL, the level at 59 day of an 84-day dosing cycle (clinical; 10.8 mg) was 0.55 ng/mL and the “Time at which plasma concentration starts to increase” value [1] was “second week”.

For Gonadotropin-releasing hormone [GnRH], the Half-life [2] is given as “several minutes”.

— publication PMC9695356, “Development and Validation of an LC-MS/MS Method for Simultaneous Determination of Short Peptide-Based Drugs in Human Blood Plasma” (Molecules, 2022)
